# Measured values as given in PubChem BioAssay (NCI).
#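 Tested at 5 concentrations; 48 h exposure; 96-well plates; endpoints linearly interpolated, else capped at highest concentration. TGI is the concentration that stops growth completely.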
# How the values were obtained:
# Experiment in all cases: NCI tumour cell line growth inhibition, 48 h
# DMS 273 small cell lung = system: DMS 273 small cell lung
# RXF-631 renal = system: RXF-631 renal
# CCRF-CEM leukemia = system: CCRF-CEM leukemia
# SK-MEL-2 melanoma = system: SK-MEL-2 melanoma
# SF-268 CNS = system: SF-268 CNS
# SF-295 CNS = system: SF-295 CNS
# IGROV1 ovarian = system: IGROV1 ovarian
# TK-10 renal = system: TK-10 renal
# U251 CNS = system: U251 CNS
# SK-MEL-28 melanoma = system: SK-MEL-28 melanoma
# RXF 393 renal = system: RXF 393 renal
# KM20L2 colon = system: KM20L2 colon
# RPMI-8226 leukemia = system: RPMI-8226 leukemia
# COLO 205 colon = system: COLO 205 colon
# MALME-3M melanoma = system: MALME-3M melanoma
# SNB-75 CNS = system: SNB-75 CNS
# SR leukemia = system: SR leukemia
# SNB-78 CNS = system: SNB-78 CNS
# UO-31 renal = system: UO-31 renal
# HOP-18 NSCLC = system: HOP-18 NSCLC
# MOLT-4 leukemia = system: MOLT-4 leukemia
# UACC-62 melanoma = system: UACC-62 melanoma
# CAKI-1 renal = system: CAKI-1 renal
# OVCAR-5 ovarian = system: OVCAR-5 ovarian
# NCI-H23 lung = system: NCI-H23 lung
# NCI-H522 lung = system: NCI-H522 lung
# SNB-19 CNS = system: SNB-19 CNS
# HOP-92 NSCLC = system: HOP-92 NSCLC
# A549 NSCLC = system: A549 NSCLC
# KM12 colon = system: KM12 colon
# HOP-62 NSCLC = system: HOP-62 NSCLC
# M19-MEL melanoma = system: M19-MEL melanoma
# SK-OV-3 ovarian = system: SK-OV-3 ovarian
# K-562 leukemia = system: K-562 leukemia
# OVCAR-4 ovarian = system: OVCAR-4 ovarian
# XF 498 CNS = system: XF 498 CNS
# OVCAR-8 ovarian = system: OVCAR-8 ovarian
# 786-0 renal = system: 786-0 renal
# SF-539 CNS = system: SF-539 CNS
# A498 renal = system: A498 renal
# LOX IMVI melanoma = system: LOX IMVI melanoma
# DMS 114 small cell lung = system: DMS 114 small cell lung
# HCT-116 colon = system: HCT-116 colon
# LXFL 529 NSCLC = system: LXFL 529 NSCLC
# NCI-H226 lung = system: NCI-H226 lung
# UACC-257 melanoma = system: UACC-257 melanoma
# SW-620 colon = system: SW-620 colon
# EKVX NSCLC = system: EKVX NSCLC
# HCT-15 colon = system: HCT-15 colon
# HCC-2998 colon = system: HCC-2998 colon
# SK-MEL-5 melanoma = system: SK-MEL-5 melanoma
# NCI-H460 lung = system: NCI-H460 lung
# ACHN renal = system: ACHN renal
# DLD-1 colon = system: DLD-1 colon
# HT29 colon = system: HT29 colon
# HL-60(TB) leukemia = system: HL-60(TB) leukemia
# OVCAR-3 ovarian = system: OVCAR-3 ovarian
# M14 melanoma = system: M14 melanoma
# SN12C renal = system: SN12C renal
smiles,measurement,setting,value
CC1NOC(=O)C1N=Nc1ccccc1Br (centres undefined),TGI,DMS 273 small cell lung,> 100 µM
same,TGI,RXF-631 renal,> 100 µM
same,TGI,CCRF-CEM leukemia,74.2 µM
same,TGI,SK-MEL-2 melanoma,36.7 µM
same,TGI,SF-268 CNS,66 µM
same,TGI,SF-295 CNS,> 100 µM
same,TGI,IGROV1 ovarian,> 100 µM
same,TGI,TK-10 renal,57.4 µM
same,TGI,U251 CNS,46.1 µM
same,TGI,SK-MEL-28 melanoma,79.8 µM
same,TGI,RXF 393 renal,32 µM
same,TGI,KM20L2 colon,> 100 µM
same,TGI,RPMI-8226 leukemia,91.6 µM
same,TGI,COLO 205 colon,35.7 µM
same,TGI,MALME-3M melanoma,50.5 µM
same,TGI,SNB-75 CNS,64 µM
same,TGI,SR leukemia,58.2 µM
same,TGI,SNB-78 CNS,88.8 µM
same,TGI,UO-31 renal,33.1 µM
same,TGI,HOP-18 NSCLC,> 100 µM
same,TGI,MOLT-4 leukemia,67 µM
same,TGI,UACC-62 melanoma,48.1 µM
same,TGI,CAKI-1 renal,38.4 µM
same,TGI,OVCAR-5 ovarian,> 100 µM
same,TGI,NCI-H23 lung,49.1 µM
same,TGI,NCI-H522 lung,33.8 µM
same,TGI,SNB-19 CNS,> 100 µM
same,TGI,HOP-92 NSCLC,52.2 µM
same,TGI,A549 NSCLC,69 µM
same,TGI,KM12 colon,44.8 µM
same,TGI,HOP-62 NSCLC,> 100 µM
same,TGI,M19-MEL melanoma,35.8 µM
same,TGI,SK-OV-3 ovarian,99 µM
same,TGI,K-562 leukemia,52.8 µM
same,TGI,OVCAR-4 ovarian,> 100 µM
same,TGI,XF 498 CNS,40 µM
same,TGI,OVCAR-8 ovarian,44.9 µM
same,TGI,786-0 renal,39.8 µM
same,TGI,SF-539 CNS,51.2 µM
same,TGI,A498 renal,51.3 µM
same,TGI,LOX IMVI melanoma,> 100 µM
same,TGI,DMS 114 small cell lung,35.7 µM
same,TGI,HCT-116 colon,92.8 µM
same,TGI,LXFL 529 NSCLC,31.2 µM
same,TGI,NCI-H226 lung,81.2 µM
same,TGI,UACC-257 melanoma,44 µM
same,TGI,SW-620 colon,30.9 µM
same,TGI,EKVX NSCLC,80.3 µM
same,TGI,HCT-15 colon,84.8 µM
same,TGI,HCC-2998 colon,> 100 µM
same,TGI,SK-MEL-5 melanoma,29.1 µM
same,TGI,NCI-H460 lung,57.9 µM
same,TGI,ACHN renal,> 100 µM
same,TGI,DLD-1 colon,> 100 µM
same,TGI,HT29 colon,> 100 µM
same,TGI,HL-60(TB) leukemia,40.8 µM
same,TGI,OVCAR-3 ovarian,43.8 µM
same,TGI,M14 melanoma,43.3 µM
same,TGI,SN12C renal,59.5 µM
